Patent publication US12077503B2, “Substituted cyclic amides and their use as herbicides” (FMC CORPORATION, priority 2015, dated 2024)

Tests used:
Assay type in all cases: in vivo
Kochia (Kochia scoparia) [1] = assay: Test A preemergence; settings: Preemergence; for Plant response rating, Kochia: 125 g ai/ha, visual injury after approximately 10 d, 0 to 100 scale where 0 is no effect and 100 is complete control; for Kochia plant response rating (0 to 100 scale, 0 is no effect, 100 is complete control): 500 g ai/ha, visual injury approx. 10 d
How it was run: (§1)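 Treatment is preemergence as a directed soil spray after planting, or postemergence at the one- to two-leaf stage, with test chemical in a non-phytotoxic solvent mixture plus surfactant. Plants stay in the greenhouse about 10 d before visual injury scoring on a 0 to 100 scale versus untreated controls.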

[2] = tested on: barnyardgrass (Echinochloa crus-galli); assay: Test A preemergence; settings: Preemergence; for Plant response rating, Barnyardgrass: 125 g ai/ha, visual injury after approximately 10 d, 0 to 100 scale where 0 is no effect and 100 is complete control; for Barnyardgrass plant response rating (0 to 100 scale, 0 is no effect, 100 is complete control): 500 g ai/ha, visual injury approx. 10 d
How it was run: as §1

[3] = tested on: giant foxtail (Setaria faberii); assay: Test A preemergence; settings: Preemergence; for Plant response rating, Foxtail, Giant: 125 g ai/ha, visual injury after approximately 10 d, 0 to 100 scale where 0 is no effect and 100 is complete control; for Foxtail, Giant plant response rating (0 to 100 scale, 0 is no effect, 100 is complete control): 500 g ai/ha, visual injury approx. 10 d
How it was run: as §1

[4] = tested on: pigweed (Amaranthus retroflexus); assay: Test A preemergence; settings: Preemergence; for Pigweed plant response rating (0 to 100 scale, 0 is no effect, 100 is complete control): 500 g ai/ha, visual injury approx. 10 d
[5] = tested on: ragweed (common ragweed, Ambrosia elatior); assay: Test A preemergence; settings: Preemergence; for Plant response rating, Ragweed: 125 g ai/ha, visual injury after approximately 10 d, 0 to 100 scale where 0 is no effect and 100 is complete control
How it was run: as §1

[6] = tested on: ryegrass, Italian (Italian ryegrass, Lolium multiflorum); assay: Test A preemergence; settings: Preemergence; for Plant response rating, Ryegrass, Italian: 125 g ai/ha, visual injury after approximately 10 d, 0 to 100 scale where 0 is no effect and 100 is complete control; for Ryegrass, Italian plant response rating (0 to 100 scale, 0 is no effect, 100 is complete control): 500 g ai/ha, visual injury approx. 10 d
How it was run: as §1

[7] = tested on: Galium (catchweed bedstraw, Galium aparine); assay: Test A postemergence
How it was run: as §1

Kochia (Kochia scoparia) [8] = assay: Test A postemergence
How it was run: as §1

[9] = tested on: barnyardgrass (Echinochloa crus-galli); assay: Test A postemergence
How it was run: as §1

[10] = tested on: blackgrass (Alopecurus myosuroides); assay: Test A postemergence
How it was run: as §1

corn (Zea mays) = assay: Test A postemergence
How it was run: as §1

[11] = tested on: giant foxtail (Setaria faberii); assay: Test A postemergence
How it was run: as §1

[12] = tested on: pigweed (Amaranthus retroflexus); assay: Test A postemergence
How it was run: as §1

[13] = tested on: ragweed (common ragweed, Ambrosia elatior); assay: Test A postemergence
How it was run: as §1

[14] = tested on: ryegrass, Italian (Italian ryegrass, Lolium multiflorum); assay: Test A postemergence
How it was run: as §1

[15] = tested on: wheat (Triticum aestivum); assay: Test A postemergence
How it was run: as §1

[16] = tested on: barnyardgrass (Echinochloa crus-galli); assay: Test B flooded paddy test; settings: Flood, 250 g ai/ha; 0 to 100 scale where 0 is no effect and 100 is complete control; 13 to 15 d
How it was run: (§2)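 Rating scale 0–100 (visual, vs untreated controls) after a 13–15 d greenhouse period; application to the flood layer, 3 cm above soil and maintained; plants at 2-leaf stage when treated.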

[17] = tested on: ducksalad (Heteranthera limosa); assay: Test B flooded paddy test; settings: Flood, 250 g ai/ha; 0 to 100 scale where 0 is no effect and 100 is complete control; 13 to 15 d
How it was run: as §2

rice (Oryra sativa) = assay: Test B flooded paddy test; settings: Flood, 250 g ai/ha; 0 to 100 scale where 0 is no effect and 100 is complete control; 13 to 15 d
How it was run: as §2

[18] = tested on: sedge, umbrella (small-flower umbrella sedge, Cyperus difformis); assay: Test B flooded paddy test; settings: Flood, 250 g ai/ha; 0 to 100 scale where 0 is no effect and 100 is complete control; 13 to 15 d
How it was run: as §2

[19] = 125 g ai/ha, postemergence, visual rating after approx. 10 d, 0 to 100 scale (0 no effect, 100 complete control)
[20] = Postemergence, 500 g ai/ha, 0 to 100 scale where 0 is no effect and 100 is complete control

Q: Which results are given for `O=C1NCC(c2cccc(C(F)(F)F)c2F)C1C(=O)Nc1ccccc1F` (stereo not shown) [Compound 590]?
A: Plant response rating, Kochia (Kochia (Kochia scoparia) [1]): 0; Kochia plant response rating (0 to 100 scale, 0 is no effect, 100 is complete control) (Kochia (Kochia scoparia) [1]): 20; Plant response rating, Barnyardgrass [2]: 90; Barnyardgrass plant response rating (0 to 100 scale, 0 is no effect, 100 is complete control) [2]: 90; Plant response rating, Foxtail, Giant [3]: 90; Foxtail, Giant plant response rating (0 to 100 scale, 0 is no effect, 100 is complete control) [3]: 90; Plant response rating, Pigweed ([4]; 125 g ai/ha, visual injury after approximately 10 d, 0 to 100 scale where 0 is no effect and 100 is complete control): 0; Pigweed plant response rating (0 to 100 scale, 0 is no effect, 100 is complete control) [4]: 0; Plant response rating, Ragweed [5]: 0; Plant response rating, Ryegrass, Italian [6]: 0; Ryegrass, Italian plant response rating (0 to 100 scale, 0 is no effect, 100 is complete control) [6]: 30; Plant response rating, Galium [7, 19]: 20; Plant response rating, Galium [7, 20]: 30; Plant response rating, Kochia (Kochia (Kochia scoparia) [8]; [19]): 0; Plant response rating, Kochia (Kochia (Kochia scoparia) [8]; [20]): 30; Plant response rating, Barnyardgrass [9, 19]: 90; Plant response rating, Barnyardgrass [9, 20]: 90; Plant response rating, Blackgrass [10, 19]: 50; Plant response rating, Blackgrass [10, 20]: 70; Plant response rating, Corn (corn (Zea mays); [19]): 50; Plant response rating, Corn (corn (Zea mays); [20]): 70; Plant response rating, Foxtail, Giant [11, 19]: 90; Plant response rating, Foxtail, Giant [11, 20]: 90; Plant response rating, Pigweed [12, 19]: 0; Plant response rating, Pigweed [12, 20]: 0; Plant response rating, Ragweed [13, 19]: 0; Plant response rating, Ragweed [13, 20]: 0; Plant response rating, Ryegrass, Italian [14, 19]: 30; Plant response rating, Ryegrass, Italian [14, 20]: 30; Plant response rating, Wheat [15, 19]: 20; Plant response rating, Wheat [15, 20]: 70; Plant response rating, Barnyardgrass [16]: 60; Plant response rating, Ducksalad [17]: 90; Plant response rating, Rice (rice (Oryra sativa)): 0; Plant response rating, Sedge, Umbrella [18]: 0

Q: Which results are given for `O=C1NCC(c2cc(C(F)(F)F)ccc2F)C1C(=O)Nc1ccccc1F` (stereo not shown) [Compound 593]?
A: Plant response rating, Kochia (Kochia (Kochia scoparia) [1]): 0; Kochia plant response rating (0 to 100 scale, 0 is no effect, 100 is complete control) (Kochia (Kochia scoparia) [1]): 0; Plant response rating, Barnyardgrass [2]: 90; Barnyardgrass plant response rating (0 to 100 scale, 0 is no effect, 100 is complete control) [2]: 90; Plant response rating, Foxtail, Giant [3]: 90; Foxtail, Giant plant response rating (0 to 100 scale, 0 is no effect, 100 is complete control) [3]: 90; Pigweed plant response rating (0 to 100 scale, 0 is no effect, 100 is complete control) [4]: 0; Plant response rating, Ragweed [5]: 0; Ragweed plant response rating (0 to 100 scale, 0 is no effect, 100 is complete control) ([5]; 500 g ai/ha, visual injury approx. 10 d): 0; Plant response rating, Ryegrass, Italian [6]: 0; Ryegrass, Italian plant response rating (0 to 100 scale, 0 is no effect, 100 is complete control) [6]: 50; Plant response rating, Galium [7, 19]: 0; Plant response rating, Galium [7, 20]: 20; Plant response rating, Kochia (Kochia (Kochia scoparia) [8]; [19]): 0; Plant response rating, Kochia (Kochia (Kochia scoparia) [8]; [20]): 0; Plant response rating, Barnyardgrass [9, 19]: 90; Plant response rating, Barnyardgrass [9, 20]: 90; Plant response rating, Blackgrass [10, 19]: 50; Plant response rating, Blackgrass [10, 20]: 60; Plant response rating, Corn (corn (Zea mays); [19]): 30; Plant response rating, Corn (corn (Zea mays); [20]): 70; Plant response rating, Foxtail, Giant [11, 19]: 90; Plant response rating, Foxtail, Giant [11, 20]: 90; Plant response rating, Pigweed [12, 19]: 0; Plant response rating, Pigweed [12, 20]: 0; Plant response rating, Ragweed [13, 19]: 0; Plant response rating, Ragweed [13, 20]: 0; Plant response rating, Ryegrass, Italian [14, 19]: 0; Plant response rating, Ryegrass, Italian [14, 20]: 30; Plant response rating, Wheat [15, 19]: 0; Plant response rating, Wheat [15, 20]: 40; Plant response rating, Barnyardgrass [16]: 60; Plant response rating, Ducksalad [17]: 80; Plant response rating, Rice (rice (Oryra sativa)): 15; Plant response rating, Sedge, Umbrella [18]: 0
